This note sets out measurements from PMC4906375, “Contribution of Amphipathicity and Hydrophobicity to the Antimicrobial Activity and Cytotoxicity of β-Hairpin Peptides” (ACS Infectious Diseases, 2016).

One data set relates to human erythrocytes. Put plainly: Hemolysis assay. The settings on record: 3 h, relative to 100% hemolysis by 1% Triton X-100.
Another data set relates to HepG2 cells. In words: Cytotoxicity, Alamar Blue (resazurin) assay. The format is cell-based, human. Conditions: HepG2; highest concentration (300 μM) tested. The method, then: (§1) Cytotoxicity to HEK293 and HepG2 cells was determined using the Alamar Blue (resazurin) assay,[55],[56] with 24 h of incubation and either 1 or 10% serum concentration. Full assay details are included in the Supporting Information.
(§2) Cytotoxicity. Cytotoxicity to HEK293 and HepG2 cells was determined using the Alamar Blue (resazurin) assay,3, 4 For the assays supplemented with 1 % FBS as final concentration the cells were seeded one day prior to the assay (3,000 per 20 µL for HEK293 and 4,000 per 20 µL for HepG2) with DMEM + 2 % FBS. The compounds were prepared as described below, using DMEM with no FBS instead to give the final FBS concentration of 1 %.
(§3) The highest concentration the compounds were tested was 300 µg/mL. A dilution series of 1:3 fold steps in DMEM (GIBCOPInvitrogen, cat. no. 11995P073) + 10 % FBS was created (concentration range of 600 µg/mL – 0.28 µg/mL), and 20 µL of these 2x concentrated compound dilutions were added in duplicates to wells of a black wall, clear bottom 384Pwells cell culture plate. For the assays with 1 % FBS the compounds in 0 % FBS were added to the existing cell plates in 2 % FBS. 200 µM Tamoxifen (Sigma T5648) served as negative control and in addition a serial dilution of tamoxifen, starting at 200 µM (74 µg/mL), was included as a dose response control (1 in 2 dilution series for tamoxifen). For the assay with 10 % FBS, HepG2 cells were seeded at 5000 cells per well, in a volume of 20 µL in DMEM medium + 10 % of FBS and added to the 20 µL of compound solution (total volume of 40 µL), resulting in a final compound concentration range of 300 µg/mL to 0.14 µg/mL.
(§4) Cells were incubated together with the compounds for 20 h at 37 °C, 5 % CO2.
(§5) After the incubation, 5 µL of 100 µM (25 µg/mL) resazurin dissolved in PBS (final concentration was approximately 11 µM) was added to each well. The plates were then incubated for 3 h at 37 °C, 5 % CO2. The fluorescence intensity was read using the TECAN Infinite M1000 PRO with excitation/emission 560/590. The data was analysed by Graph Pad Prism software. Results are presented as the average percentage of control ± SD for each set of duplicate wells using the following equation: Cell survival % = (FISAMPLE – FINegative/FIUNTREATED –FINegative)*100. (100 µg/mL tamoxifen was set as 0 % survival, media

The test system of a further data set is HEK293 cells. Put plainly: Cytotoxicity, Alamar Blue (resazurin) assay. It counts as cell-based, human. Conditions: HEK293; highest concentration (300 μM) tested. On the procedure: as §1, §2, §3, §4, §5

Consider `CC[C@H](C)[C@H](NC(=O)[C@@H](NC(=O)[C@@H]1CCCN1C(=O)[C@@H](NC(=O)[C@@H]1CCCN1C(=O)[C@H](CCCCN)NC(=O)[C@H](CCCCN)NC(=O)[C@H](CO)NC(=O)CN)C(C)C)[C@@H](C)CC)C(=O)N[C@@H](Cc1ccc(O)cc1)C(=O)N[C@H]1CSSC[C@@H](C(=O)N[C@@H](CCC(N)=O)C(=O)N[C@@H](CCCNC(=N)N)C(=O)N[C@@H](CCSC)C(N)=O)NC(=O)[C@H](CCCCN)NC(=O)CNC(=O)[C@H]([C@@H](C)O)NC(=O)[C@H](CCCNC(=N)N)NC(=O)[C@H](CCCNC(=N)N)NC(=O)[C@H](CC(N)=O)NC1=O` [thanatin], for which, in the data set on human erythrocytes, the “hemolysis (%) at 300 μg/mL” value is “nonhemolytic”. The “cytotoxicity at the highest concentration tested” value with HepG2 cells and with HEK293 cells was “nontoxic” throughout.
